Test results from patent US20120196918A1, “PREVENTING ISLET INFLAMMATION AND DYSFUNCTION AND MAINTAINING PROPER GLUCOSE LEVELS BY CONTROLLING eIF5A AND ITS HYPUSINATION” (priority 2009, published 2012).

Legend:
[1] = tested on: LPS-treated NOD/Scid-(IL-2Rγ-null) mice; assay: LPS injection model in NOD/Scid-(IL-2Rγ-null) mice; type: in vivo, mouse; details: GC7 4 mg/kg/day i.p.
Protocol: Because systemic GC7 delivery would be expected to inhibit hypusination in all cells that express DHS, it is unclear if the islet protection afforded by GC7 in vivo is a result of its effects in the islet, the immune cells, or both. In order to clarify this, the IL-1 responses in STZ-treated C57BL/6J animals were assessed by measuring levels of the IL-1-responsive cytokine IL-6. […] No alterations in serum levels of IL13 and Rantes/CCL5 were observed between treatment groups (FIG. 10F). […] To address the role of immune cells more directly, a mouse model was generated to test the role of hypusination in the islet inflammatory response independently of the immune system. Lipopolysaccharide (LPS) is an agent that evokes the NFkB response through activation of the toll-like receptor 4 (TLR4) (48), which is also expressed in pancreatic islets (49). […]
GSIS and IPGTT studies: For GSIS studies using isolated islets, approximately 50 islets or 1×10^6 INS-1 cells per condition were washed and incubated in Krebs-Ringer HEPES-buffered (KRB) solution for one hour at 37° C., and then placed in KRB solution containing 3 mM or 11 mM glucose for one hour. […] Blood glucose was measured from samples taken from the tail vein before intraperitoneal injection of 1 g glucose per kg mouse weight, and at 10, 20, 30, 60, 90, 120, and 180 minutes after glucose administration using an A1phaTrak® glucometer (Abbott). […]

[2] = tested on: INS-1 cells; assay: Cell cycle analysis of INS-1 cells (propidium iodide cytometry); type: cell-based
Protocol: (§1) Because GC7 is known to be inactivated by the action amine oxidases, which are abundant in serum, typical studies with GC7 in the literature have used aminoguanidine to inhibit amine oxidases (16). […] To rule out possible adverse effects of GC7 on cell viability, quantitative 2 color fluorescence analysis of live (calcein-AM-positive) and dead (ethidium homodimer-1-positive) cells were performed using fluorescence cytometry.
(§2) For flow cytometry studies, INS-1 cells (serum starved or pretreated with GC7 as indicated in the figures) were stained with calcein-AM and ethidium homodimer 1 (Live/Dead® kit, Invitrogen) for 30 minutes, and 30,000 cells/sample were analyzed for green (living cells) and red (dead cells) fluorescence using a FACS Calibur (BD bioscience) instrument. For cell cycle analysis, 10^6 cells were washed in PBS and fixed in ice-cold 70% ethanol for 1 hour. After washing in PBS, cells were re-suspended in Guava cell cycle reagent (Millipore) and incubated at room temperature for 30 minutes. Intercalation of propidium iodide into cellular DNA was quantitated using a FACS Calibur instrument and the data analyzed for cell cycle status using Modfit software.

[3] = tested on: Nos2 mRNA; assay: Nuclear export of Nos2 mRNA, subcellular fractionation of cytokine-treated INS-1 cells; type: cell-based, rat; details: cytokine-treated; GC7 100 μM overnight or leptomycin B 20 ng/ml 3 h
Protocol: Subcellular fractionation studies: Nuclear and cytoplasmic fractions of 1×10^6 cytokine-treated INS-1 cells exposed to vehicle, leptomycin B (20 ng/ml), or GC7 (100 μM) were prepared using the method of Dignam, et al. (76). Total RNA was isolated from nuclear and cytoplasmic fractions using the RNeasy® RNA isolation kit (Qiagen).
Quantitative RT-PCR: Five micrograms of total RNA from islets or INS-1 cells were reverse-transcribed as detailed previously (77). cDNA was subjected to quantitative PCR using SYBR Green-based technology and published primers for mouse Ins1/2 pre-mRNA (78) and QuantiTech® primers (Qiagen) for all other mouse genes. The Assay on Demand® kit (Applied Biosystems) was used to amplify rat genes in INS-1 cells and human genes in human islets. Thermal cycling was performed according to manufacturer's instructions, and the identity of each PCR product was verified by automated sequencing. All samples were corrected for total input RNA as quantitated by an Experion® (Bio-Rad) bioanalyzer. All data represent the average of triplicate determinations from at least 3 independent experiments.

[4] = tested on: INS-1 cells; assay: Live/dead two-colour fluorescence cytometry of INS-1 cells; type: cell-based, rat
Protocol: as §1, §2

NCCCCCCCN=C(N)N [GC7]
glucose intolerance in IPGTT 3 days after LPS ([1]; LPS 20 mg/kg single injection): no evidence of glucose intolerance | iNOS staining intensity in islets ([1]; LPS 20 mg/kg): increased iNOS staining intensity in islets of vehicle-treated animals, but not in GC7-treated animals | cell cycle progression ([2]; 3 days GC7 exposure): cell cycle block was clearly apparent | cell cycle progression (G1-S) ([2]; overnight GC7, any concentration): no significant effect on cell cycle progression | distribution of mRNAs between nuclear and cytoplasmic fractions [3]: relative nuclear retention of Nos2 mRNA | percentage of dead cells ([4]; 125 μM GC7, 3 days exposure): 70% | percentage of dead INS-1 cells ([4]; GC7 0 to 125 μM, overnight exposure, unaffected by concentration): 4-5%
